# Patent publication US20020061902A1, “Treatment method” (SCHERING CORPORATION, priority 2000, published 2002)
# Experiments:
# eosinophils = assay: PAF-induced eosinophil chemotaxis (blind well-chamber technique); assay type: cell-based, human; conditions: 10 μM desloratadine; 1 μM PAF; eosinophils from patients with allergic rhinitis or allergic asthma; P<0.02
# Excerpt: (§1) Eosinophils were isolated and purified (>99% pure and >98% viable) from the blood of patients with allergic rhinitis or allergic asthma; a 2-week washout preceded blood collection.
# [1] = tested on: eosinophils / human umbilical endothelial cells (HUVECs); assay: TNFα-induced adhesion of 51Cr-labeled eosinophils to HUVECs; assay type: cell-based; conditions: 10 μM desloratadine; TNFA; P<0.02
# Excerpt: as §1
# [2] = stability of free base versus acid addition salt; assay type: physicochemical; conditions: free base vs acid addition salt
# [3] = tested on: rhinitis due to pollen allergy; conditions: given over a two week period; patients with rhinitis due to pollen allergy; cited from earlier work
smiles,measurement,setting,value
"Clc1ccc2c(c1)CCc1cccnc1C2=C1CCNCC1 [Desloratadine, desloratadine]",maximum attenuation of PAF-induced eosinophil chemotaxis,eosinophils,36%±8%
same,maximum attenuation of TNFα-induced eosinophil adhesion to HUVECs,[1],27%±5%
same,stability as the free base compared with an acid addition salt,[2],more stable as the free base
O=C(O)COCCN1CCN(C(c2ccccc2)c2ccc(Cl)cc2)CC1 (stereo not drawn) [cetirizine],ICAM-1 expression on nasal epithelial cells,[3],reduced
same,eosinophil counts,[3],reduced
same,rhinitis symptoms,[3],reduced
CCOC(=O)N1CCC(=C2c3ccc(Cl)cc3CCc3cccnc32)CC1 [loratadine],ICAM-1 expression on nasal epithelial cells,[3],reduced
same,eosinophil counts,[3],reduced
same,rhinitis symptoms,[3],reduced
